# Assay results as given in patent US7115750B1, “Melanin concentrating hormone antagonist” (Takeda Pharmaceutical Company Limited, priority 1999, dated 2006).
row,SMILES,melting point
1,"CNc1ccc(-c2ccc(C(=O)Nc3ccc4c(c3)CCC(CN(C)C)C4)cc2)cc1 (stereo not shown) [Example 38, N-[6-[(N,N-Dimethylamino)methyl]-5,6,7,8-tetrahydro-2-naphthalenyl]-4′-(methylamino)[1,1′-biphenyl]-4-carboxamide]",163 to 165 °C
2,"CN(C)CC1CCc2cc(NC(=O)c3ccc(-c4ccc(C(=O)O)cc4)cc3)ccc2C1 (stereo not shown) [Example 40, 4′-[[[6-[(N,N-Dimethylamino)methyl]-5,6,7,8-tetrahydro-2-naphthalenyl]amino]carbonyl][1,1′-biphenyl]-4-carboxylic acid]",143 °C (dec.)
3,"CN(C)CC1=Cc2ccc(NC(=O)c3ccc(-c4ccc(Cl)cc4)cc3)cc2CC1 [Example 41, 4′-Chloro-N-[6-[(N,N-dimethyl)methyl]-7,8-dihydro-2-naphthalenyl][1,1′-biphenyl]-4-carboxamide]",204 to 207 °C
4,"CN(C)CC1=Cc2ccc(NC(=O)c3ccc(-c4ccc(F)cc4)cc3)cc2CC1 [Example 42, 4′-Fluoro-N-[6-[(N,N-dimethylamino)methyl]-7,8-dihydro-2-naphthalenyl][1,1′-biphenyl]-4-carboxamide]",190 to 193 °C
5,"CN(C)CC1Cc2ccc(NC(=O)c3ccc(-c4ccc(Cl)cc4)cc3)cc2C1 (stereo not shown) [Example 43, 4′-Chloro-N-[2-[(dimethylamino)methyl]-2,3-dihydro-1H-inden-5-yl][1,1′-biphenyl]-4-carboxamide]",192 to 194 °C
6,"CN(C)CC1CCCc2cc(NC(=O)c3ccc(-c4ccc(F)cc4)cc3)ccc2C1 (stereo not shown) [Example 45, 4′-Fluoro-N-[6-[(dimethylamino)methyl]-6,7,8,9-tetrahydro-5H-benzo[a]cyclohepten-2-yl][1,1′-biphenyl]-4-carboxamide]",167 to 169 °C
7,CN(C)CC1CCCc2cc(NC(=O)c3ccc(-c4ccc(Cl)cc4)cc3)ccc2C1 (stereo not shown) [Example 46],173 to 175 °C
8,"CN(C)CC1=Cc2ccc(NC(=O)c3ccc(-c4ccccc4)cc3)cc2CC1 [Example 47, N-[6-[(Dimethylamino)methyl]-7,8-dihydro-2-naphthalenyl][1,1′-biphenyl]-4-carboxamide]",173 to 175 °C
9,"CN(C)CC1=Cc2ccc(NC(=O)c3ccc(-c4ccccc4Cl)cc3)cc2CC1 [Example 50, 2′-Chloro-N-[6-[(dimethylamino)methyl]-7,8-dihydro-2-naphthalenyl][1,1′-biphenyl]-4-carboxamide]",145 to 147 °C
10,"O=C(Nc1ccc2c(c1)CCC(CN1CCCCC1)C2)c1ccc(-c2ccc(F)cc2)cc1 (stereo not shown) [Example 54, 4′-Fluoro-N-[6-(1-piperidinylmethyl)-5,6,7,8-tetrahydro-2-naphthalenyl][1,1′-biphenyl]-4-carboxamide]",179 to 181 °C
11,"O=C(Nc1ccc2c(c1)CCC(CN1CCCCC1)C2)C1CC(=O)N(c2ccccc2)C1 (stereo not shown) [Example 56, 5-Oxo-1-phenyl-N-[6-(1-piperidinylmethyl)-5,6,7,8-tetrahydro-2-naphthalenyl]-3-pyrrolidinecarboxamide]",162 to 164 °C
12,Cc1ccc(-c2ccc(C(=O)Nc3ccc4c(c3)CCC(CN(C)C)=C4)cc2)cc1 [Example 85],195 to 196 °C
13,"O=C(Nc1ccc2c(c1)CCC(CN1CCCC1)=C2)c1ccc(-c2ccc(F)cc2F)nc1 [Example 87, 6-(2,4-Difluorophenyl)-N-[6-[(1-pyrrolidinyl)methyl]-7,8-dihydro-2-naphthalenyl]nicotinamide]",169 to 170 °C
14,"O=C(Nc1ccc2c(c1)CCC(CN1CCCC1)=C2)c1ccc(-c2ccccc2)cc1 [Example 94, N-[6-(1-Pyrrolidinylmethyl)-7,8-dihydro-2-naphthalenyl][1,1′-biphenyl]-4-carboxamide]",176 to 177 °C
15,"O=C(Nc1ccc2c(c1)CCC(CN1CCCC1)=C2)c1ccc(-c2ccc(F)cc2)cc1 [Example 95, 4′-Fluoro-N-[6-(1-pyrrolidinylmethyl)-7,8-dihydro-2-naphthalenyl][1,1′-biphenyl]-4-carboxamide]",189 to 192 °C
16,"O=C(Nc1ccc2c(c1)CCC(CN1CCCC1)C2)c1ccc(-c2ccccc2)cc1 (stereo not shown) [Example 96, N-[6-(1-Pyrrolidinylmethyl)-5,6,7,8-tetrahydro-2-naphthalenyl][1,1′-biphenyl]-4-carboxamide]",144 to 146 °C
17,"O=C(Nc1ccc2c(c1)CCC(CN1CCCC1)C2)c1ccc(-c2ccc(F)cc2)cc1 (stereo not shown) [Example 97, 4′-Fluoro-N-[6-(1-pyrrolidinylmethyl)-5,6,7,8-tetrahydro-2-naphthalenyl][1,1′-biphenyl]-4-carboxamide]",185 to 189 °C
18,"O=C(Nc1ccc2c(c1)CCC(CN1CCCC1)C2)c1ccc(-c2ccc(Cl)cc2)cc1 (stereo not shown) [Example 98, 4′-Chloro-N-[6-(1-pyrrolidinylmethyl)-5,6,7,8-tetrahydro-2-naphthalenyl][1,1′-biphenyl]-4-carboxamide]",206 to 209 °C
19,"O=C(Nc1ccc2c(c1)CCC(CN1CCCC1)=C2)N1CCN(c2ccc(F)cc2)CC1 [Example 100, 4-(4-Fluorophenyl)-N-[6-(1-pyrrolidinylmethyl)-7,8-dihydro-2-naphthalenyl]-1-piperazinecarboxamide]",179 to 181 °C
20,"CN(C)CC1=Cc2ccc(C(=O)Nc3ccc(Br)cc3)cc2CC1 [Example 101, N-(4-Bromophenyl)-6-[(dimethylamino)methyl]-7,8-dihydro-2-naphthalenecarboxamide]",175 to 179 °C

# More lines, now with the values ahead:
row,melting point,SMILES
1,165 to 167 °C,"O=C(Nc1ccc2c(c1)CCC(CN1CCCC1)=C2)c1ccc(-c2ccc(F)cc2F)cc1 [Example 103, 2′,4′-Difluoro-N-[6-(1-pyrrolidinylmethyl)-7,8-dihydro-2-naphthalenyl][1,1′-biphenyl]-4-carboxamide]"
2,124 to 126 °C,"CN(C)CC1COc2ccc(NC(=O)c3ccc(-c4ccccc4)cc3)cc2O1 (stereo not shown) [Example 104, N-[3-[(Dimethylamino)methyl]-2,3-dihydro-1,4-benzodioxin-6-yl][1,1′-biphenyl]-4-carboxamide]"
3,215 to 217 °C,"CN(C)CC1COc2cc(NC(=O)c3ccc(-c4ccc(Cl)cc4)cc3)ccc2O1 (stereo not shown) [Example 106, 4′-Chloro-N-[2-[(dimethylamino)methyl]-2,3-dihydro-1,4-benzodioxin-6-yl][1,1′-biphenyl]-4-carboxamide]"
4,209 to 210 °C,"CN(C)CC1COc2cc(NC(=O)c3ccc(-c4ccc(F)cc4F)cc3)ccc2O1 (stereo not shown) [Example 107, 2′,4′-Difluoro-N-[2-[(dimethylamino)methyl]-2,3-dihydro-1,4-benzodioxin-6-yl][1,1′-biphenyl]-4-carboxamide]"
5,218 to 220 °C,"O=C(Nc1ccc2c(c1)OCC(CN1CCCC1)O2)c1ccc(-c2ccc(Cl)cc2)nc1 (stereo not shown) [Example 108, 6=(4-Chlorophenyl)-N-[2-(1-pyrrolidinylmethyl)-2,3-dihydro-1,4-benzodioxin-6-yl]nicotinamide]"
6,199 to 204 °C,"CC1=C(CN(C)C)CCc2cc(NC(=O)c3ccc(-c4ccc(Cl)cc4)cc3)ccc21 [Example 111, 4′-Chloro-N-[6-[(dimethylamino)methyl]-5-methyl-7,8-dihydro-2-naphthalenyl][1,1′-biphenyl]-4-carboxamide]"
7,201 to 204 °C,"CCC1=C(CN(C)C)CCc2cc(NC(=O)c3ccc(-c4ccc(Cl)cc4)cc3)ccc21 [Example 112, 4′-Chloro-N-[6-[(dimethylamino)methyl]-S-ethyl-7,8-dihydro-2-naphthalenyl][1,1′-biphenyl]-4-carboxamide]"
8,159 to 162 °C,"CC(C)CC1=C(CN(C)C)CCc2cc(NC(=O)c3ccc(-c4ccc(Cl)cc4)cc3)ccc21 [Example 113, 4′-Chloro-N-(6-[(dimethylamino)methyl)-5-isobutyl-7,8-dihydro-2-naphthalenyl][1,1′-biphenyl]-4-carboxamide]"
9,165 to 167 °C,"COc1ccc(-c2ccc(C(=O)Nc3ccc4c(c3)CCC(CN3CCCC3)=C4C)cn2)cc1 [Example 116, 6-(4-Methoxyphenyl)-N-[5-methyl-6-(1-pyrrolidinylmethyl)-7,8-dihydro-2-naphthalenyl]nicotinamide]"
10,191 to 192 °C,"N#CC1=C(CN2CCCC2)CCc2cc(NC(=O)c3ccc(-c4ccc(Cl)cc4)cc3)ccc21 [Example 117, 4′-Chloro-N-[5-cyano-6-(1-pyrrolidinylmethyl)-7,8-dihydro-2-naphthalenyl][1,1′-biphenyl]-4-carboxamide]"
11,168 to 170 °C,"N#CC1=C(CN2CCCC2)CCc2cc(NC(=O)c3ccc(-c4ccccc4)cc3)ccc21 [Example 118, N-[5-Cyano-6-(1-pyrrolidinylmethyl)-7,8-dihydro-2-naphthalenyl][1,1′-biphenyl]-4-carboxamide]"
12,145 to 148 °C,"CN(C)CC1CCc2cc(NC(=O)c3cccc(-c4ccccc4)c3)ccc2C1 (stereo not shown) [Example 120, N-[6-[(Dimethylamino)methyl]-5,6,7,8-tetrahydro-2-naphthalenyl][1,1′-biphenyl]-3-carboxamide]"
13,190 to 192 °C,CN(C)CC1CCc2cc(NC(=O)c3cc4ccccc4[nH]3)ccc2C1 (stereo not shown) [Example 122]
14,168 to 171 °C,"CN(C)CC1=Cc2ccc(NC(=O)CNC(=O)c3ccc(Cl)cc3)cc2CC1 [Example 126, 4-Chloro-N-[2-[[6-[(dimethylamino)methyl]-7,8-dihydro-2-naphthalenyl]amino]-2-oxoethyl]benzamide]"
15,202 to 203 °C,"CN(C)CC1=Cc2ncc(NC(=O)c3ccc(-c4ccccc4)cc3)cc2CC1 [Example 133, N-[7-[(Dimethylamino)methyl]-5,6-dihydro-3-quinolinyl][1,1′-biphenyl]-4-carboxamide]"
16,220 to 222 °C,"CN(C)CC1=Cc2ncc(NC(=O)c3ccc(-c4ccc(Cl)cc4)cc3)cc2CC1 [Example 134, 4′-Chloro-N-[7-[(dimethylamino)methyl]-5,6-dihydro-3-quinolinyl][1,1′-biphenyl]-4-carboxamide]"
17,243 to 245 °C,"COc1ccc(-c2ccc(C(=O)Nc3ccc4c(c3)OCC(CN3CCCC3)=C4)cn2)cc1 [Example 141, 6-(4-Methoxyphenyl)-N-[3-(1-pyrrolidinylmethyl)-2H-chromen-7-yl]nicotinamide]"
